{"source": "ChEMBL document CHEMBL1177668", "about": "“(-)-N-Formylanonaine from Michelia alba as a human tyrosinase inhibitor and antioxidant” (Bioorg Med Chem, 2010)", "key": {"[1]": {"test_system": "Radical scavenging activity", "description": "Antioxidant activity assessed as DPPH free radical scavenging activity after 30 mins"}, "[2]": {"assay": "Cytotoxicity against human keratinocytes assessed as cell viability at 10 uM after 48 hrs by MTT assay", "assay_type": "cell-based", "details": "keratinocyte"}, "[3]": {"assay": "Cytotoxicity against human HEMn-MP assessed as cell death at 10 to 200 uM after 2 to 60 hrs by phase contrast microscopic analysis"}, "[4]": {"species": "Homo sapiens", "assay": "Induction of dendritic to bipolar morphology changes in human HEMn-MP at 10 uM after 12 to 60 hrs by phase contrast microscopic analysis", "assay_type": "functional"}, "[5]": {"target": "T1, Tyrosinase (Agaricus bisporus, UniProt O42713)", "T1 sequence (O42713 whole entry)": "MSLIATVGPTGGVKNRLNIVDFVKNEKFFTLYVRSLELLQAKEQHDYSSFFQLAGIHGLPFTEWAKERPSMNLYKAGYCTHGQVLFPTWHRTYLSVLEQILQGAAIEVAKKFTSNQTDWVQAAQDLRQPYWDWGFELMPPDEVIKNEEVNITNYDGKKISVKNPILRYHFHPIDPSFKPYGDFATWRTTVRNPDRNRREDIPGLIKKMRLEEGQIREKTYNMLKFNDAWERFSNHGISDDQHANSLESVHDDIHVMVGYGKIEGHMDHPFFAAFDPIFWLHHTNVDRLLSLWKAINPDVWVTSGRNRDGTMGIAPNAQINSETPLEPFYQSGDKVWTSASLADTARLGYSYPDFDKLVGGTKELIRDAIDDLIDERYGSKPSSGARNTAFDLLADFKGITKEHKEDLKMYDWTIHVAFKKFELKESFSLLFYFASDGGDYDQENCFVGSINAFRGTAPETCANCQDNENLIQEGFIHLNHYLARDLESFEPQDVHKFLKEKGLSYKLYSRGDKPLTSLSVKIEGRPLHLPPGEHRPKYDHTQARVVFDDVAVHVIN", "description": "Inhibition of mushroom tyrosinase after 30 mins by spectrophotometric analysis"}, "[6]": {"assay": "Cytotoxicity against human fibroblasts assessed as cell viability at 100 uM after 48 hrs by MTT assay", "assay_type": "cell-based, Fibroblast", "details": "read-out: Activity"}, "[7]": {"assay": "Cytotoxicity against human keratinocytes after 48 hrs by MTT assay", "assay_type": "cell-based, Keratinocyte"}, "[8]": {"assay": "Cytotoxicity against human HEMn-MP assessed as cell viability at 200 uM after 48 hrs by MTT assay"}, "[9]": {"assay": "Cytotoxicity against human HEMn-MP assessed as cell death at 100 uM after 48 hrs by MTT assay"}, "[10]": {"assay": "Cytotoxicity against human HEMn-MP assessed as cell viability at 0.01 to 10 uM after 48 hrs by MTT assay", "details": "HEMn-MP cells, read-out: Activity"}, "[11]": {"species": "Homo sapiens", "assay": "Reduction of melanin production in human HEMn-MP at 10 uM after 12 to 60 hrs by phase contrast microscopic analysis", "assay_type": "functional"}, "[12]": {"assay": "Antioxidant activity assessed as potassium ferric cyanide ion reducing power at 100 uM after 20 mins", "assay_type": "functional"}, "[13]": {"species": "Homo sapiens", "assay": "Induction of dendritic to bipolar morphology changes in human HEMn-MP at 200 uM after 12 to 60 hrs by phase contrast microscopic analysis", "assay_type": "functional"}, "[14]": {"assay": "Cytotoxicity against human HEMn-MP after 48 hrs by MTT assay", "details": "HEMn-MP cells"}, "[15]": {"assay": "Cytotoxicity against human fibroblasts after 48 hrs by MTT assay", "assay_type": "cell-based, Fibroblast"}, "[16]": {"test_system": "Fibroblast", "assay": "Cytotoxicity against human fibroblasts assessed as cell viability at 200 uM after 48 hrs by MTT assay", "assay_type": "cell-based"}, "[17]": {"species": "Homo sapiens", "assay": "Induction of dendritic to bipolar morphology changes in human HEMn-MP at 100 uM after 48 hrs by phase contrast microscopic analysis", "assay_type": "functional"}, "[18]": {"species": "Homo sapiens", "assay": "Reduction of melanin production in human HEMn-MP at 200 uM after 12 to 60 hrs by phase contrast microscopic analysis", "assay_type": "functional"}, "[19]": {"test_system": "Fibroblast", "assay": "Cytotoxicity against human fibroblasts assessed as cell viability at 10 uM after 48 hrs by MTT assay", "assay_type": "cell-based"}, "[20]": {"target": "T2, Tyrosinase (Homo sapiens, UniProt P14679)", "T2 sequence (P14679 whole entry)": "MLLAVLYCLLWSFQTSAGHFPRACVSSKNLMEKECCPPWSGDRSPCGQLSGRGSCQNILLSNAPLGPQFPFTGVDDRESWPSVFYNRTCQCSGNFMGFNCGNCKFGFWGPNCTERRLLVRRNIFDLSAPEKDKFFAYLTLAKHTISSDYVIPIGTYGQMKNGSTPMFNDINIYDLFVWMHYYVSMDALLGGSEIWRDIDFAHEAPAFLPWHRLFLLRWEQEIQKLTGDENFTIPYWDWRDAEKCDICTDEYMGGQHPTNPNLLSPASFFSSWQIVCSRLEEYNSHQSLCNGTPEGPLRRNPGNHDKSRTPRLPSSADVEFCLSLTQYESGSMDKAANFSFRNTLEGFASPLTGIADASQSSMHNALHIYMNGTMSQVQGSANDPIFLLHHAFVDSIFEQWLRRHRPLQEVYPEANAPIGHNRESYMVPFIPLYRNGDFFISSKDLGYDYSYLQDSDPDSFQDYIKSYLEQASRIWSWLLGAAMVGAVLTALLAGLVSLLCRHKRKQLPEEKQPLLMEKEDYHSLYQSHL", "assay": "Inhibition of tyrosinase in human HEMn-MP assessed as reduction of melanin level after 2 days by spectrophotometric analysis"}, "[21]": {"target": "T3, Tyrosinase (Homo sapiens) (UniProt P14679)", "T3 sequence (whole entry)": "T2 sequence (P14679 whole entry)", "assay": "Inhibition of tyrosinase in human HEMn-MP assessed as oxidation of L-DOPA to dopaquinone at 100 uM after 2 days by spectrophotometric analysis"}}, "note": "Active and inactive are the calls of the source. The rule behind the calls is not given here."}
{"smiles": "O=C1O[C@H]([C@@H](O)CO)C(O)=C1O", "note": "[ASCORBIC ACID]", "values": [{"measurement": "IC50", "setting": "[1]", "value": 52.1, "unit": "µM"}]}
{"smiles": "O=CN1CCc2cc3c(c4c2[C@H]1Cc1ccccc1-4)OCO3", "values": [{"measurement": "Activity", "setting": "[2]", "value": "Non-toxic"}, {"measurement": "Activity", "setting": "[3]", "value": "Non-toxic"}, {"measurement": "Activity", "setting": "[4]", "value": "Active"}, {"measurement": "IC50", "setting": "[1]", "value": 121, "unit": "µM"}, {"measurement": "IC50", "setting": "[5]", "value": 74.3, "unit": "µM"}, {"measurement": "viability at 48 h, 100 µM", "setting": "[6]", "value": 70, "unit": "%"}, {"measurement": "CC50 at 48 h", "setting": "[7]", "value": 355, "unit": "µM"}, {"measurement": "Activity", "setting": "[8]", "value": "Toxic"}, {"measurement": "Activity", "setting": "[9]", "value": "Toxic"}, {"measurement": "viability at 48 h, 10 µM", "setting": "[10]", "value": 90, "unit": "%"}, {"measurement": "Activity", "setting": "[11]", "value": "Active"}, {"measurement": "OD", "setting": "[12]", "value": 0.56}, {"measurement": "Activity", "setting": "[13]", "value": "Active"}, {"measurement": "CC50 at 48 h", "setting": "[14]", "value": 735, "unit": "µM"}, {"measurement": "CC50 at 48 h", "setting": "[15]", "value": 325, "unit": "µM"}, {"measurement": "Activity", "setting": "[16]", "value": "Non-toxic"}, {"measurement": "Activity", "setting": "[17]", "value": "Active"}, {"measurement": "Activity", "setting": "[18]", "value": "Active"}, {"measurement": "Activity", "setting": "[19]", "value": "Non-toxic"}, {"measurement": "EC50", "setting": "[20]", "value": 90, "unit": "µM"}, {"measurement": "Activity", "setting": "[21]", "value": "Active"}]}
{"smiles": "COc1ccc(O)c(C(C)(C)C)c1.COc1ccc(O)cc1C(C)(C)C", "values": [{"measurement": "OD", "setting": "[12]", "value": 1.28}]}
